Here are results for ten molecules from ChEMBL document CHEMBL1649094, “First Selective CYP11B1 Inhibitors for the Treatment of Cortisol-Dependent Diseases” (ACS Med Chem Lett, 2011).

As usually defined, the inhibition is the drop in the measured response relative to a control, in per cent. The term IC50 denotes the concentration that inhibits the measured activity by half.

One series has as its target T1, CYP19 (aromatase) (Homo sapiens, UniProt P11511).
T1 sequence (P11511 whole entry): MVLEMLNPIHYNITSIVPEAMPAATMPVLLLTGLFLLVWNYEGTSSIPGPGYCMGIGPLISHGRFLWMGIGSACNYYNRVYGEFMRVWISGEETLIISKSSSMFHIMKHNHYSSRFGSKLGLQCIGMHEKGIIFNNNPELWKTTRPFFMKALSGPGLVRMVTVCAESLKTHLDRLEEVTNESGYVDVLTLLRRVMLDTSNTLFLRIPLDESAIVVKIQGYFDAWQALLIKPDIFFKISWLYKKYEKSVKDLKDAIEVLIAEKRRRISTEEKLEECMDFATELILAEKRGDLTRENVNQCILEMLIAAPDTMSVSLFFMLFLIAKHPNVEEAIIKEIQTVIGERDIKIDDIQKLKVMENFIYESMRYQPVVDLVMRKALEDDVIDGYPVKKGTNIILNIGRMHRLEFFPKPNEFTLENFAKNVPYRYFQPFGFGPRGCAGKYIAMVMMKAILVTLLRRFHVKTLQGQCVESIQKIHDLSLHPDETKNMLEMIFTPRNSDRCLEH
Put plainly: Inhibition of human placental microsomes CYP19 at 500 nM using androstenedione substrate. Conditions: human placental microsomes, probe androstenedione; call rule not given here.

The target in series [1] is T2, Cytochrome P450 11B1, mitochondrial (Homo sapiens, UniProt P15538).
T2 sequence (P15538 whole entry): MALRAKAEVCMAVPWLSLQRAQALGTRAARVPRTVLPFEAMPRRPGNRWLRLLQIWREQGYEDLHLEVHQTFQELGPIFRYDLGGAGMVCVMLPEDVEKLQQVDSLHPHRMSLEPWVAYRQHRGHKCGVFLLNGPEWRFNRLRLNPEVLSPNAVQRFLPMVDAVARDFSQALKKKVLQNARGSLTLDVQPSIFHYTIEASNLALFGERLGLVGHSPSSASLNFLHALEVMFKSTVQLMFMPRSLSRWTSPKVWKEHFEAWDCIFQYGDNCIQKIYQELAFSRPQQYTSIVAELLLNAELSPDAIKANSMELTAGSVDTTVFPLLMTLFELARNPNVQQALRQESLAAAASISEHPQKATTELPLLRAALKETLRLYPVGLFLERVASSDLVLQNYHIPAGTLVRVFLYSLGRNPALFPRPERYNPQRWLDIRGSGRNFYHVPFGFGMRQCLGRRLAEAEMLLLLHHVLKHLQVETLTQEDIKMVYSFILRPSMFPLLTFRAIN
Put plainly: Inhibition of human CYP11B1 expressed in hamster V79MZ cells using 11-deoxycorticosterone substrate. In kind it is cell-based.

A further series is filed under the species Homo sapiens. The series can be described thus: Selectivity index, ratio of IC50 for human CYP11B2 to IC50 for human CYP11B1.
For series [2], the target named is T3, Cytochrome P450 11B2, mitochondrial (Homo sapiens, UniProt P19099).
T3 sequence (P19099 whole entry): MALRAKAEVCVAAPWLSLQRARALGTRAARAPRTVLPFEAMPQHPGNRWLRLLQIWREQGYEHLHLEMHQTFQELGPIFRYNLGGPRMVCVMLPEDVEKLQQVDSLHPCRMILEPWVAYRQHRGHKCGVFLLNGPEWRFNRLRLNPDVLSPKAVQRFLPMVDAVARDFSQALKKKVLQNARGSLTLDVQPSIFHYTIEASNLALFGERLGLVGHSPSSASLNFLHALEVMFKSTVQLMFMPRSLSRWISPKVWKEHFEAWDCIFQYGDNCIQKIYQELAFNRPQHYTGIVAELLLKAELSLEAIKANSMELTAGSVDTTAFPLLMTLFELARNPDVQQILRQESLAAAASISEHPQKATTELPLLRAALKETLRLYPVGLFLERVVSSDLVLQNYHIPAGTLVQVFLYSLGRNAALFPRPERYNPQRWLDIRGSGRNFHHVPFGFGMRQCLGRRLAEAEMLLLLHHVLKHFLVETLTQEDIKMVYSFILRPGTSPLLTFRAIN
Put plainly: Inhibition of human CYP11B2 expressed in hamster V79MZ cells using 11-deoxycorticosterone substrate. In kind it is cell-based.

The next series deals with T4, CYP17 (Homo sapiens, UniProt P05093).
T4 sequence (P05093 whole entry): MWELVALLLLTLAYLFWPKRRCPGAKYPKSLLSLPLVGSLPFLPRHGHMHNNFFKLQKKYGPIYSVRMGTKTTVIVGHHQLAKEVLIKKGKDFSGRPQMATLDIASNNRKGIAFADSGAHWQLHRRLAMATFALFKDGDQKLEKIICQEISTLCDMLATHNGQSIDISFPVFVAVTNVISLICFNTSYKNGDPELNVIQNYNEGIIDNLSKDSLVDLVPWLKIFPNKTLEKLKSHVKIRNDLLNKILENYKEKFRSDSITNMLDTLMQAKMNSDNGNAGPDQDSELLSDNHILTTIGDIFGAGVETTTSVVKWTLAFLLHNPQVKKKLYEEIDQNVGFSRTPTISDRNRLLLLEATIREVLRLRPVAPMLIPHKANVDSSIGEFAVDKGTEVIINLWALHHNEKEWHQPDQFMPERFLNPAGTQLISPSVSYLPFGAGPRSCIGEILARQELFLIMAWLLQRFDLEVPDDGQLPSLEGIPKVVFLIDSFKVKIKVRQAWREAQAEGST
The series can be described thus: (§1) Inhibition of human recombinant CYP17 expressed in Escherichia coli at 2 uM using progesterone substrate. As to conditions: recombinant human CYP17 expressed in Escherichia coli, probe progesterone.

The target in series [3] is T5, Steroid 17-alpha-hydroxylase/17,20 lyase (Homo sapiens, UniProt P05093).
T5 sequence (P05093 whole entry): T4 sequence (P05093 whole entry)
The description is as §1. Conditions: 2 µM.

In the case of `c1ccc(-c2cc(Cn3ccnc3)cc(-c3ccccc3)c2)cc1`, on CYP19 (aromatase), the inhibition at 0.5 µM turned out to be 12%. Moreover, the IC50 in series [1] turned out to be 128 nM; in series [2], 332 nM. The Ratio IC50 in the series filed under Homo sapiens is 2.6. For the same molecule, on CYP17, the inhibition at 2 µM was found to be 52%.

Turning to `c1ccc(-c2ccc(Cn3ccnc3)cc2)cc1`, on CYP19 (aromatase), 0.5 µM produced 5% inhibition. Further, the values for the half-inhibitory concentration (IC50) in series [1] and in series [2] were 32 nM and 637 nM, respectively. The Ratio IC50 in the series filed under Homo sapiens was determined as 20. Also, at CYP17, the inhibition at 2 µM came out at 40%.

At CYP19 (aromatase), `c1ccc(-c2ccc(Cn3ccnc3)s2)cc1` yielded an inhibition at 0.5 µM of 12%. In addition, the IC50 in series [1] is 43 nM; in series [2], 353 nM. Besides, in the series filed under Homo sapiens, the Ratio IC50 was 8.2. For the same molecule, the inhibition at 2 µM at CYP17 was determined as 21%.

The molecule `c1ccc(-c2cccc(Cn3ccnc3)c2)cc1` showed an inhibition at 0.5 µM against CYP19 (aromatase) of 38%. Besides, the figures for the IC50 in series [1] and in series [2] were 46 nM and 265 nM, respectively. Moreover, in the series filed under Homo sapiens, the Ratio IC50 is 5.8. Further, the “inhibition (INH)” value in series [3] is given as “Not Active”.

With `c1ccc(-c2ccc(Cn3ccnc3)o2)cc1`, the inhibition at 0.5 µM on CYP19 (aromatase) was 38%. Also, the concentration for half-maximal inhibition (IC50) in series [1] is 46 nM; in series [2], 372 nM. Moreover, the Ratio IC50 in the series filed under Homo sapiens is 8.1. For the same molecule, on CYP17, the inhibition at 2 µM worked out at 0%.

In the case of `c1ccc(C(CCn2ccnc2)(c2ccccc2)c2ccccc2)cc1`, the inhibition at 0.5 µM against CYP19 (aromatase) was 38%. Further, the IC50 in series [1] amounted to 80 nM; in series [2], 290 nM. In the series filed under Homo sapiens, the Ratio IC50 amounted to 3.6. In series [3], the “inhibition (INH)” value is “Not Active”.

At CYP19 (aromatase), `c1ccc(-c2ccccc2Cn2ccnc2)cc1` registered an inhibition at 0.5 µM of 38%. For the same molecule, the IC50 in series [1] was 15 nM; in series [2], 39 nM. Also, the Ratio IC50 in the series filed under Homo sapiens worked out at 2.6. Further, the “inhibition (INH)” value in series [3] is on record as “Not Active”.

Regarding `Cc1cccc(Cn2ccnc2)c1`, on CYP19 (aromatase), testing at 0.5 µM gave an inhibition of 12%. Further, the IC50 in series [1] was found to be 48 nM; in series [2], 110 nM. Also, the Ratio IC50 in the series filed under Homo sapiens worked out at 2.3. Further, the “inhibition (INH)” value in series [3] was “Not Active”.

As to `Cc1ccccc1Cn1ccnc1`, at 0.5 µM the inhibition against CYP19 (aromatase) was 12%. Moreover, the values for the IC50 in series [1] and in series [2] were 61 nM and 62 nM, respectively. In addition, the Ratio IC50 in the series filed under Homo sapiens amounted to 1. In addition, in series [3], the “inhibition (INH)” value is “Not Active”.

At CYP19 (aromatase), `Cc1cc(C)cc(Cn2ccnc2)c1` yielded an inhibition at 0.5 µM of 38%. Further, the IC50 in series [1] was 32 nM; in series [2] it was 77 nM. Also, in the series listed under Homo sapiens, the Ratio IC50 was 2.4. Besides, the “inhibition (INH)” value in series [3] was “Not Active”.
